In patent US9694019B2, “Compositions and methods for treating bone diseases and broken bones” (BRIGHAM YOUNG UNIVERSITY, priority 2011, dated 2017):

Tests used:
MC3T3-E1 cells = assay: Quantitative spectroscopic ALP (alkaline phosphatase) assay in MC3T3-E1 cells; assay type: cell-based; conditions: MC3T3-E1 day 4 of differentiation, with or without 200 ng/mL rhBMP-2 and 50 μM sodium alginate; compared with CSA-90 (FIG. 4)
Description: MC3T3-E1 cells at day 4 of differentiation were treated with or without 200 ng/mL rhBMP-2 (recombinant human BMP-2), 0-50 μM CSA-90, and with or without 50 μM sodium alginate. Quantitative spectroscopic ALP (alkaline phosphatase) assays were performed in on multiple wells and normalized to viable cell number. Experimental assays were carried out twice independently. Data for this analysis is provided in FIG. 4 (from left to right 0, 0.5, 1, 5, 10, 25, and 50 μM CSA-90 were tested with or without BMP-2 and Algin).

quadriceps of mice = assay: Ectopic bone formation in quadriceps of mice (muscle pouch model), XR and microCT; assay type: in vivo
Description: 10 μg rhBMP-2 was implanted into the quadriceps of mice with 0, 25 μg, or 250 μg CSA-90. A control group received 250 μg CSA-90 alone (without rhBMP-2). Bone was allowed to form ectopically over 3 weeks. Specimens were then harvested for XR (FIG. 5) and microCT (FIG. 7).
MicroCT scans were performed on all samples using a Skyscan 1174 microCT scanner. Scanning data confirmed increases in bone volume (BV) with the addition of CSA-90 (See FIG. 6).

primary human MSC cells = assay: BMP regulation: gene expression array (SABiosciences PAHS-026) in primary human MSC cells; assay type: cell-based; conditions: hMSC, 8 hours
Description: SABisosciences custom array plates (Cat#PAHS-026) were used to measure BMP expression. These array plates are validated for efficiency when used at recommended conditions and reagents. On day 1, primary human MSC cells were plated at 200,000 cell/well using 6-well plates with 10% FBS, Penicillin and Streptomycin 10 mL per Liter, in recommended media. Only early passages of cells were used.
On day 2, cells were treated with compounds dissolved in DMSO diluted 1:1000 or more to avoid solvent effects. A non-treated negative control group was evaluated (FIG. 1, “Control Group”) along with a positive control group containing PS1 at 0.1 μM (FIG. 1, “Group 1”). Final testing concentration for CSA-90 was 5.0 μM (FIG. 1, “Group 2”), 2.5 μM (FIG. 1, “Group 3”), and 1.2 μM (FIG. 1, “Group 4”). Treatment lasted 8 hours, followed by RNA isolation using a QIAGEN Miniprep Kit. RNA was measured at 260/280 nm using NanoDrop2000 and normalized to 250 ng. cDNA preparation was done using QIAGEN First Strand kit.

[1] = v. untreated control, concentration not given

## CCCCCCCCNCCC[C@@H](C)[C@H]1CC[C@H]2[C@@H]3[C@H](OCCCN)C[C@@H]4C[C@H](OCCCN)CC[C@]4(C)[C@H]3C[C@H](OCCCN)[C@]12C [CSA-13]
MC3T3-E1 cells
  ALP (alkaline phosphatase) activity normalized to viable cell number: Comparable results

## CCCCCN(CCCCC)CCC[C@@H](C)[C@H]1CC[C@H]2[C@@H]3[C@H](OCCCN)C[C@@H]4C[C@H](OCCCN)CC[C@]4(C)[C@H]3C[C@H](OCCCN)[C@]12C [CSA-90]
Quadriceps of mice; 25 μg with 10 μg rhBMP-2, mice quadriceps, 3 weeks, microCT, parametric P=0.02, nonparametric P<0.01
  increase in bone volume (BV) vs rhBMP-2 alone: statistically significant
Quadriceps of mice; 250 μg alone without rhBMP-2, muscle pouch model, mice, 3 weeks, microCT (FIG. 7)
  bone formation, CSA alone: appears to also result in bone formation
Quadriceps of mice; 250 μg with 10 μg rhBMP-2, mice quadriceps, 3 weeks, microCT, parametric P<0.01, nonparametric P<0.01
  increase in bone volume (BV) vs rhBMP-2 alone: statistically significant
Quadriceps of mice; mice quadriceps, 10 μg rhBMP-2 plus CSA-90, 3 weeks, microCT, vs rhBMP-2 alone
  increase of ectopic bone volume induced by rhBMP-2 treatment: about 3.2 fold
Primary human MSC cells; 5 μM concentration
  up-regulation of BMP-2 mRNA expression: ~6 fold
Primary human MSC cells; [1]
  Fold Up-Regulation ACTB (Actin, beta): −4.1173 fold
  Fold Up-Regulation AHSG (Alpha-2-HS-glycoprotein): 1.4077 fold
  Fold Up-Regulation ALPL (Alkaline phosphatase, liver/bone/kidney): −5.8397 fold
  Fold Up-Regulation AMBN (Ameloblastin): −1.0298 fold
  Fold Up-Regulation AMELY (Amelogenin, Y-linked): −1.008 fold
  Fold Up-Regulation ANXA5 (Annexin A5): −1.0287 fold
  Fold Up-Regulation BGLAP (Bone gamma-carboxyglutamate (gla) protein): −1.1336 fold
  Fold Up-Regulation BGN (Biglycan): −2.2679 fold
  Fold Up-Regulation BMP-1 (Bone morphogenetic protein 1): −1.4719 fold
  Fold Up-Regulation BMP-2 (Bone morphogenetic protein 2): 6.7295 fold
  Fold Up-Regulation BMP-3 (Bone morphogenetic protein 3): 1.3888 fold
  Fold Up-Regulation BMP-4 (Bone morphogenetic protein 4): −3.7558 fold
  Fold Up-Regulation BMP-5 (Bone morphogenetic protein 5): 2.1036 fold
  Fold Up-Regulation BMP-6 (Bone morphogenetic protein 6): 14.8826 fold
  Fold Up-Regulation CALCR (CALCITONIN RECEPTOR): 2.1036 fold
  Fold Up-Regulation CD36 (CD36 molecule, thrombospondin receptor): −2.3276 fold
  Fold Up-Regulation CDH11 (Cadherin 11, type 2, OB-cadherin): −2.6119 fold
  Fold Up-Regulation COL1A1 (Collagen, type I, alpha 1): −1.9589 fold
  Fold Up-Regulation COL1A2 (Collagen, type I, alpha 2): −1.525 fold
  Fold Up-Regulation COL2A1 (Collagen, type II, alpha 1): 1.0817 fold
  Fold Up-Regulation COL3A1 (Collagen, type III, alpha 1): 1.1521 fold
  Fold Up-Regulation COL4A3 (Collagen, type IV, alpha 3): −9.7105 fold
  Fold Up-Regulation COL5A1 (Collagen, type V, alpha 1): −1.603 fold
  Fold Up-Regulation COL10A1 (Collagen, type X, alpha 1): 1.0439 fold
  Fold Up-Regulation COL11A1 (Collagen, type XI, alpha 1): −2.8055 fold
  Fold Up-Regulation COL12A1 (Collagen, type XII, alpha 1): −1.366 fold
  Fold Up-Regulation COL14A1 (Collagen, type XIV, alpha 1): 1.0661 fold
  Fold Up-Regulation COL15A1 (Collagen, type XV, alpha 1): 1.1217 fold
  Fold Up-Regulation COMP (Cartilage oligomeric matrix protein): 1.5909 fold
  Fold Up-Regulation CSF2 (Colony stimulating factor 2): 3.2231 fold
  Fold Up-Regulation CSF3 (Colony stimulating factor 3): 1.3504 fold
  Fold Up-Regulation CTSK (Cathepsin K): 1.0843 fold
  Fold Up-Regulation DMP1 (Dentin matrix acidic phosphoprotein 1): 2.1036 fold
  Fold Up-Regulation DSPP (Dentin sialophosphoprotein): 2.1036 fold
  Fold Up-Regulation EGF (Epidermal growth factor): −1.3949 fold
  Fold Up-Regulation EGFR (Epidermal growth factor receptor): 1.0894 fold
  Fold Up-Regulation ENAM (Enamelin): 2.1036 fold
  Fold Up-Regulation FGF1 (Fibroblast growth factor 1): −1.7551 fold
  Fold Up-Regulation FGF2 (Fibroblast growth factor 2): −1.0498 fold
  Fold Up-Regulation FGF3 (Fibroblast growth factor 3): −1.5325 fold
  Fold Up-Regulation FGFR1 (Fibroblast growth factor receptor 1): −1.5568 fold
  Fold Up-Regulation FGFR2 (Fibroblast growth factor receptor 2): −3.1961 fold
  Fold Up-Regulation FLT1 (Fms-related tyrosine kinase 1): −2.1823 fold
  Fold Up-Regulation FN1 (Fibronectin 1): −1.4863 fold
  Fold Up-Regulation GAPDH (Glyceraldehyde-3-phosphate dehydrogenase): −1.0501 fold
  Fold Up-Regulation GDF10 (Growth differentiation factor 10): 2.1036 fold
  Fold Up-Regulation ICAM1 (Intercellular adhesion molecule 1): 1.3786 fold
  Fold Up-Regulation IGF1 (Insulin-like growth factor 1): 15.8816 fold
  Fold Up-Regulation IGF1R (Insulin-like growth factor 1 receptor): 1.6854 fold
  Fold Up-Regulation IGF2 (Insulin-like growth factor 2): −2.6412 fold
  Fold Up-Regulation ITGA1 (Integrin, alpha 1): 1.2807 fold
  Fold Up-Regulation ITGA2 (Integrin, alpha 2): 1.6174 fold
  Fold Up-Regulation ITGA3 (Integrin, alpha 3): −2.1172 fold
  Fold Up-Regulation ITGAM (Integrin, alpha M): 2.5974 fold
  Fold Up-Regulation ITGB1 (Integrin, beta 1): −1.3007 fold
  Fold Up-Regulation MMP2 (Matrix metallopeptidase 2): −1.6002 fold
  Fold Up-Regulation MMP8 (Matrix metallopeptidase 8): −1.0189 fold
  Fold Up-Regulation MMP9 (Matrix metallopeptidase 9): 2.0169 fold
  Fold Up-Regulation MMP10 (Matrix metallopeptidase 10): 2.1233 fold
  Fold Up-Regulation MSX1 (Msh homeobox 1): −1.1393 fold
  Fold Up-Regulation NFKB1 (Nuclear factor of kappa light polypeptide gene enhancer in B-cells 1): 1.0365 fold
  Fold Up-Regulation PDGFA (Platelet-derived growth factor alpha polypeptide): −1.1381 fold
  Fold Up-Regulation PHEX (Phosphate regulating endopeptidase homolog, X-linked): −2.0881 fold
  Fold Up-Regulation RUNX2 (Runt-related transcription factor 2): −1.1998 fold
  Fold Up-Regulation SCARB1 (Scavenger receptor class B, member 1): −2.7137 fold
  Fold Up-Regulation SERPIN H1 (Serpin peptidase inhibitor, clade H, member 1): −2.6434 fold
  Fold Up-Regulation SMAD1 (SMAD family member 1): −1.2436 fold
  Fold Up-Regulation SMAD2 (SMAD family member 2): −1.2016 fold
  Fold Up-Regulation SMAD3 (SMAD family member 3): −2.8152 fold
  Fold Up-Regulation SMAD4 (SMAD family member 4): −1.0529 fold
  Fold Up-Regulation STATH (Statherin): 2.5891 fold
  Fold Up-Regulation TFIP11 (Tuftelin interacting protein 11): −1.6592 fold
  Fold Up-Regulation TGFB1 (Transforming growth factor, beta 1): −1.3031 fold
  Fold Up-Regulation TGFB2 (Transforming growth factor, beta 2): 1.619 fold
  Fold Up-Regulation TGFB3 (Transforming growth factor, beta 3): 3.2853 fold
  Fold Up-Regulation TGFBR1 (Transforming growth factor, beta receptor 1): 1.5219 fold
  Fold Up-Regulation TGFBR2 (Transforming growth factor, beta receptor II): −1.7799 fold
  Fold Up-Regulation TNF (Tumor necrosis factor): 2.7072 fold
  Fold Up-Regulation TUFT1 (Tuftelin 1): −4.5431 fold
  Fold Up-Regulation TWIST1 (Twist homolog 1): −1.6813 fold
  Fold Up-Regulation VCAM1 (Vascular cell adhesion molecule 1): −1.1098 fold
  Fold Up-Regulation VDR (Vitamin D (1,25-dihydroxyvitamin D3) receptor): −6.6007 fold
  Fold Up-Regulation VEGFA (Vascular endothelial growth factor A): 1.3548 fold
  Fold Up-Regulation VEGFB (Vascular endothelial growth factor B): 1.2749 fold
